Measured values reported in the supplement of paper PMC10307832.

The cell lines below were run with N#CC1(c2ccc(NC(=O)c3cccnc3NCc3ccncc3)cc2)CCCC1 [Apatinib] + COc1cc2c(Oc3ccc(NC(=O)C4(C(=O)Nc5ccc(F)cc5)CC4)cc3F)ccnc2cc1OCCCN1CCOCC1 [Foretinib] (partner 0.25 µM) (assay: relative viability (nuclei count vs DMSO), 5 days (fraction); higher = more cells survive). Details: first compound 0.08 µM.
Procedure, shortened: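 A single step with final 0.05% Triton X-100, 1% formaldehyde and 1 ug/ml Hoechst fixed the cells and stained nuclei 5 days after treatment. Lung cancer cell lines in 1536-well plates had been treated by pin tool the day after seeding with one drug alone or a fixed anchor-drug dose plus five library-drug doses (not always all listed) in √10 steps, and nuclei were counted on 4× images. Relative viability is the ratio of nuclei in treated wells to nuclei in vehicle wells, taken as the median of duplicate plates.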

| Cell Line | relative viability |
| --- | --- |
| LK-2 | 1.37 |
| NCI-H358 | 0.83 |
| NCI-H650 | 1.05 |
| NCI-H661 | 1 |
| NCI-H727 | 1.02 |
| NCI-H1299 | 1.14 |
| NCI-H1563 | 0.897 |
| NCI-H1623 | 0.912 |
| NCI-H1703 | 0.37 |
| NCI-H2342 | 1.01 |
| SW 900 | 1.06 |

Same assay, conditions: first compound 0.253 µM

| Cell Line | relative viability |
| --- | --- |
| 201T | 1.11 |
| A549 | 0.933 |
| A-427 | 0.828 |
| ABC-1 | 1.27 |
| BEN | 0.548 |
| CAL-12T | 1.14 |
| COR-L23 | 0.952 |
| COR-L 105 | 1.11 |
| Calu-6 | 0.915 |
| ChaGo-K-1 | 1 |
| EBC-1 | 0.0844 |
| EKVX | 0.872 |
| EMC-BAC-2 | 1.12 |
| H3255 | 0.795 |
| HARA | 0.898 |
| HCC-15 | 0.866 |
| HCC-78 | 0.513 |
| HCC-366 | 0.904 |

| Cell Line | relative viability |
| --- | --- |
| HCC-827 | 1.04 |
| HOP-62 | 1.18 |
| IA-LM | 1.13 |
| LC-2-ad | 0.89 |
| LCLC-97TM1 | 0.882 |
| LCLC-103H | 0.957 |
| LK-2 | 1.13 |
| NCI-H358 | 0.912 |
| NCI-H650 | 1.05 |
| NCI-H661 | 0.93 |
| NCI-H727 | 0.676 |
| NCI-H1299 | 1.13 |
| NCI-H1563 | 0.996 |
| NCI-H1623 | 0.826 |
| NCI-H1703 | 0.345 |
| NCI-H2342 | 1.05 |
| SW 900 | 0.921 |

Same assay, conditions: first compound 0.8 µM

| Cell Line | relative viability |
| --- | --- |
| 201T | 1.05 |
| A549 | 1 |
| A-427 | 1.03 |
| ABC-1 | 0.961 |
| BEN | 0.668 |
| CAL-12T | 1.11 |
| COR-L23 | 0.926 |
| COR-L 105 | 1.23 |
| Calu-6 | 0.799 |
| ChaGo-K-1 | 0.942 |
| EBC-1 | 0.0979 |
| EKVX | 0.951 |
| EMC-BAC-2 | 1.04 |
| EPLC-272H | 0.802 |
| H3255 | 0.757 |
| HARA | 0.812 |
| HCC-15 | 1 |
| HCC-78 | 0.523 |

| Cell Line | relative viability |
| --- | --- |
| HCC-366 | 0.966 |
| HCC-827 | 1.01 |
| HOP-62 | 1.11 |
| IA-LM | 1.09 |
| LC-2-ad | 0.904 |
| LCLC-97TM1 | 0.944 |
| LCLC-103H | 0.681 |
| LK-2 | 1.13 |
| NCI-H358 | 0.671 |
| NCI-H650 | 1.02 |
| NCI-H661 | 1.04 |
| NCI-H727 | 0.937 |
| NCI-H1299 | 1.09 |
| NCI-H1563 | 0.884 |
| NCI-H1623 | 0.844 |
| NCI-H1703 | 0.31 |
| NCI-H2342 | 1.02 |
| SW 900 | 0.822 |

Same assay, conditions: first compound 2.53 µM

| Cell Line | relative viability |
| --- | --- |
| 201T | 1.06 |
| A549 | 0.887 |
| A-427 | 1.01 |
| ABC-1 | 1.1 |
| BEN | 0.558 |
| CAL-12T | 0.992 |
| COR-L23 | 0.903 |
| COR-L 105 | 0.768 |
| Calu-6 | 0.766 |
| ChaGo-K-1 | 0.851 |
| EBC-1 | 0.0995 |
| EKVX | 0.615 |
| EMC-BAC-2 | 0.919 |
| EPLC-272H | 0.671 |
| H3255 | 0.753 |
| HARA | 0.847 |
| HCC-15 | 0.999 |
| HCC-78 | 0.536 |

| Cell Line | relative viability |
| --- | --- |
| HCC-366 | 0.93 |
| HCC-827 | 1 |
| HOP-62 | 1.1 |
| IA-LM | 0.703 |
| LC-2-ad | 0.947 |
| LCLC-97TM1 | 0.959 |
| LCLC-103H | 0.805 |
| LK-2 | 1.1 |
| NCI-H358 | 0.685 |
| NCI-H650 | 0.871 |
| NCI-H661 | 1.02 |
| NCI-H727 | 0.835 |
| NCI-H1299 | 1.09 |
| NCI-H1563 | 0.812 |
| NCI-H1623 | 0.802 |
| NCI-H1703 | 0.297 |
| NCI-H2342 | 0.983 |
| SW 900 | 0.584 |

Same assay, conditions: first compound 8 µM

| Cell Line | relative viability |
| --- | --- |
| 201T | 0.813 |
| A549 | 0.855 |
| A-427 | 0.598 |
| ABC-1 | 1.02 |
| BEN | 0.726 |
| CAL-12T | 0.974 |
| COR-L23 | 0.836 |
| COR-L 105 | 0.849 |
| Calu-6 | 0.791 |
| ChaGo-K-1 | 0.745 |
| EBC-1 | 0.1 |
| EKVX | 0.775 |
| EMC-BAC-2 | 0.858 |
| EPLC-272H | 0.394 |
| H3255 | 0.675 |
| HARA | 0.93 |
| HCC-15 | 0.834 |
| HCC-78 | 0.535 |

| Cell Line | relative viability |
| --- | --- |
| HCC-366 | 0.963 |
| HCC-827 | 0.763 |
| HOP-62 | 0.848 |
| IA-LM | 0.38 |
| LC-2-ad | 0.868 |
| LCLC-97TM1 | 0.584 |
| LCLC-103H | 0.573 |
| LK-2 | 0.645 |
| NCI-H358 | 0.696 |
| NCI-H650 | 0.806 |
| NCI-H661 | 0.941 |
| NCI-H727 | 0.912 |
| NCI-H1299 | 0.941 |
| NCI-H1563 | 0.897 |
| NCI-H1623 | 0.777 |
| NCI-H1703 | 0.37 |
| NCI-H2342 | 0.936 |
| SW 900 | 0.605 |
